Source: patent publication US12459951B2, “Compounds that interact with RAS superfamily proteins for treatment of cancers, inflammatory diseases, rasopathies, and fibrotic disease” (SHY Therapeutics, LLC, priority 2022, dated 2025)

Experiments:
[1] = test system: MiaPaca-2 (expressing KRAS G12C mutant); assay: Proliferation Assay (Cell Viability Assay); type: cell-based; conditions: Homo sapiens, MIA PaCa-2; read-out: Proliferation in MiaPaca-2: IC50
In short: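 After 2–4 days' exposure at 37 °C, 5% CO2 to a single 10 μM final concentration or a dilution series (IC50), percent proliferation inhibition was derived from CellTiter 96 Aqueous One viability readings. The medium contained 0.3% DMSO and 10% FBS. KRAS G12C MiaPaca-2 cells were plated at 2000–5000/well the day before.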

Rac-1 = target: T1, Rac-1 (Homo sapiens, UniProt P63000); assay: Ras GTP Binding Domain Inhibition Assay (Ras Superfamily Assay); conditions: read-out: Rac-1: % inh.
T1 construct: made in house
In short: (§1)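 Binding of 100 nM fluorescent GTP (Cy3 or Cy5, 45 min, room temperature) was read after washes from plate-captured His-tagged protein. Beforehand, compounds at 20 μM or in dilution series for IC50 sat 3 h on the protein in Tris buffer pH 7.4 or 7.0 with 1% DMSO, Sos GEF optionally added for the last hour.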

KRas wild type = assay: as above; conditions: for KRas wild type + SOS: % inh.: with SOS; for KRas wild type: % inh.: without SOS
In short: as §1

KRas G12D mutant = assay: as above; conditions: for KRas G12D mutant + SOS: % inh.: with SOS; for KRas G12D mutant: % inh.: without SOS
In short: as §1

| Structure (SMILES) | IC50 [1] | inhibition at 20 µM (Rac-1) | KRas wild type + SOS: % inh. (KRas wild type; at 20 μM) | KRas wild type: % inh. (KRas wild type; at 20 μM) | KRas G12D mutant + SOS: % inh. (KRas G12D mutant; at 20 μM) | KRas G12D mutant: % inh. (KRas G12D mutant; at 20 μM) | KRas wild type + SOS: % inh. (KRas wild type; 20 μM compound) | KRas wild type: % inh. (KRas wild type; 20 μM compound) | KRas G12D mutant + SOS: % inh. (KRas G12D mutant; 20 μM compound) | KRas G12D mutant: % inh. (KRas G12D mutant; 20 μM compound) |
| --- | --- | --- | --- | --- | --- | --- | --- | --- | --- | --- |
| CO[C@H]1C[C@H](Nc2nc(-c3nccn3C)nn3cc(-c4ccc(CN)cc4)c(-c4ccccc4)c23)C1.Cl [Compound 206, 6-(4-(Aminomethyl)phenyl)-N-((1r,3r)-3-methoxycyclobutyl)-2-(1-methyl-1H-imidazol-2-yl)-5-phenylpyrrolo[2,1-f][1,2,4]triazin-4-amine hydrochloride salt] | > 1000 nM | 1 to 25% | A (A = 1-25% inhibition) | A (A = 1-25% inhibition) | A (A = 1-25% inhibition) | A (A = 1-25% inhibition) | – | – | – | – |
| COc1ccc(Nc2nc(-c3nccn3C)nn3cc(-c4ccn(C)n4)c(C)c23)nc1 [Compound 224, N-(5-Methoxypyridin-2-yl)-5-methyl-2-(1-methyl-1H-imidazol-2-yl)-6-(1-methyl-1H-pyrazol-3-yl)pyrrolo[2,1-f][1,2,4]triazin-4-amine] | < 150 nM | 76 to 100% | D (D = 76-100% inhibition) | D (D = 76-100% inhibition) | D (D = 76-100% inhibition) | D (D = 76-100% inhibition) | – | – | – | – |
| COCCNc1nc(-c2nccn2C)nn2cc(-c3cccnc3)c(-c3ccccc3)c12 [Compound 195, N-(2-Methoxyethyl)-2-(1-methyl-1H-imidazol-2-yl)-5-phenyl-6-(pyridin-3-yl)pyrrolo[2,1-f][1,2,4]triazin-4-amine] | > 1000 nM | 1 to 25% | 0 (0 = 0% inhibition) | A (A = 1-25% inhibition) | A (A = 1-25% inhibition) | A (A = 1-25% inhibition) | – | – | – | – |
| CO[C@H]1C[C@H](Nc2nc(-c3nccn3C)nn3cc(-c4cccnc4)c(-c4cccnc4)c23)C1 [Compound 171, N-((1r,3r)-3-Methoxycyclobutyl)-2-(1-methyl-1H-imidazol-2-yl)-5,6-di(pyridin-3-yl)pyrrolo[2,1-f][1,2,4]triazin-4-amine] | > 1000 nM | 1 to 25% | – | – | – | – | B (B = 26-49% inhibition) | A (A = 1-25% inhibition) | A (A = 1-25% inhibition) | A (A = 1-25% inhibition) |
| COc1ccc(N(C)c2nc(-c3nccn3C)nn3cc(-c4ccn(C)n4)c(C)c23)nc1 [Compound 225, N-(5-Methoxypyridin-2-yl)-N,5-dimethyl-2-(1-methyl-1H-imidazol-2-yl)-6-(1-methyl-1H-pyrazol-3-yl)pyrrolo[2,1-f][1,2,4]triazin-4-amine] | > 1000 nM | 1 to 25% | A (A = 1-25% inhibition) | A (A = 1-25% inhibition) | A (A = 1-25% inhibition) | B (B = 26-49% inhibition) | – | – | – | – |
| COCCCS(=O)(=O)Nc1nc(-c2nccn2C)nn2cc(-c3ccccc3)c(-c3ccccc3)c12 [Compound 213, 3-Methoxy-N-(2-(1-methyl-1H-imidazol-2-yl)-5,6-diphenylpyrrolo[2,1-f][1,2,4]triazin-4-yl)propane-1-sulfonamide] | 510 to 1000 nM | 50 to 75% | D (D = 76-100% inhibition) | D (D = 76-100% inhibition) | D (D = 76-100% inhibition) | D (D = 76-100% inhibition) | – | – | – | – |
| Cc1c(-c2ccn(C)n2)cn2nc(-c3nccn3C)nc(Nc3ccc(OCC(F)(F)F)cn3)c12 [Compound 230, 5-Methyl-2-(1-methyl-1H-imidazol-2-yl)-6-(1-methyl-1H-pyrazol-3-yl)-N-(5-(2,2,2-trifluoroethoxy)pyridin-2-yl)pyrrolo[2,1-f][1,2,4]triazin-4-amine] | < 150 nM | 76 to 100% | D (D = 76-100% inhibition) | D (D = 76-100% inhibition) | D (D = 76-100% inhibition) | D (D = 76-100% inhibition) | – | – | – | – |
